Assay results: patent US20260355212A1 (priority 2022, published 2026)
Like-named read-outs stand apart in the source and are kept apart here.

Legend:
HCoV-NL63 Mpro = HCoV-NL63 Mpro (Human coronavirus NL63, UniProt P0C6X5); assay: HCoV-NL63 Mpro enzymatic inhibition assay (fluorescence); format: biochemical
Method in brief: (§1)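 Recombinant Mpro from E. coli was pre-incubated with compound (3-fold, 10-point dilutions, duplicates) for 30 min at room temperature, then fluorogenic peptide substrate was added and fluorescence read at Ex/Em 340/490 nm after 60 min at 30 °C. IC50 came from four-parameter fits of background-corrected inhibition.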

HCoV-HKU1 Mpro = HCoV-HKU1 Mpro (Human coronavirus HKU1, UniProt P0C6X2); assay: HCoV-HKU1 Mpro enzymatic inhibition assay (fluorescence); format: biochemical
HCoV-HKU1 Mpro, sequence (P0C6X2 3335-3637 limits assumed): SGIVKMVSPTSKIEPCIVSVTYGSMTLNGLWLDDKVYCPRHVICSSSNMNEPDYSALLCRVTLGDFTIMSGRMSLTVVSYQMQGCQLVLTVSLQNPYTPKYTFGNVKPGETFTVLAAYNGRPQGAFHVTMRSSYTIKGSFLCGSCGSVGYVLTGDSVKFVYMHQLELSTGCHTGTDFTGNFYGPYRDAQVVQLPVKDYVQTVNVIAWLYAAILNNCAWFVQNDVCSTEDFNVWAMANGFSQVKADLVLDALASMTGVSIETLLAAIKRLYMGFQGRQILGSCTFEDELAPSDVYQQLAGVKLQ
Method in brief: as §1

HCoV-OC43 Mpro = HCoV-OC43 Mpro (Human coronavirus OC43, UniProt P0C6X6); assay: HCoV-OC43 Mpro enzymatic inhibition assay (fluorescence); format: biochemical
HCoV-OC43 Mpro, sequence (P0C6X6 3247-3549 limits assumed): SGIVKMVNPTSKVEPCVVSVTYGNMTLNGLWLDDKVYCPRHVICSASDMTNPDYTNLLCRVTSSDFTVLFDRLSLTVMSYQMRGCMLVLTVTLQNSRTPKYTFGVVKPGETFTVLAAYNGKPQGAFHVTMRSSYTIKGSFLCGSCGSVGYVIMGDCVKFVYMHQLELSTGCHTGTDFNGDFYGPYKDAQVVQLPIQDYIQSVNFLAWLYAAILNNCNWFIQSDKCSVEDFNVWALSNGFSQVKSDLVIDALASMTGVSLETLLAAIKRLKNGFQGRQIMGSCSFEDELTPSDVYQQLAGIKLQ
Method in brief: as §1

HCoV-229E Mpro = HCoV-229E Mpro (Human coronavirus 229E, UniProt P0C6X1); assay: HCoV-229E Mpro enzymatic inhibition assay (fluorescence); format: biochemical
HCoV-229E Mpro, sequence (P0C6X1 2966-3267 limits assumed): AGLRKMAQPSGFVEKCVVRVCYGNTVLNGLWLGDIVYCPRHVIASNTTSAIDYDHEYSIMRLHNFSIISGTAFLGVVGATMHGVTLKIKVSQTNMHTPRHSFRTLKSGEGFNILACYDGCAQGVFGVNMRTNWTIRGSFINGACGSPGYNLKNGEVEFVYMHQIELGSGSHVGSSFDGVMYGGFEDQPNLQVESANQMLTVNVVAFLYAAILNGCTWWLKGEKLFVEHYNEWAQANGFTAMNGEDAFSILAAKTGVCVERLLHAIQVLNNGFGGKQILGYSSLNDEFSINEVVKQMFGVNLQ

SARS-CoV-2 Mpro = SARS-CoV-2 Mpro (Severe acute respiratory syndrome coronavirus 2, UniProt P0DTD1); assay: SARS-CoV-2 Mpro enzymatic inhibition assay (fluorescence); format: biochemical
Method in brief: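 A fluorescence readout (340 nm excitation, 490 nm emission) was taken after the substrate reaction ran 60 min at 30° C. Before substrate addition, E. coli-expressed protease and compound (3-fold dilutions, 10 doses, duplicates) sat together 30 min at room temperature. Percent inhibition was fitted by variable-slope nonlinear regression to give IC50.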

MERS Mpro = MERS Mpro (Middle East respiratory syndrome-related coronavirus, UniProt K9N7C7); assay: biochemical; parameters: species or system MERS-CoV
MERS Mpro, sequence (K9N7C7 3248-3553 limits assumed): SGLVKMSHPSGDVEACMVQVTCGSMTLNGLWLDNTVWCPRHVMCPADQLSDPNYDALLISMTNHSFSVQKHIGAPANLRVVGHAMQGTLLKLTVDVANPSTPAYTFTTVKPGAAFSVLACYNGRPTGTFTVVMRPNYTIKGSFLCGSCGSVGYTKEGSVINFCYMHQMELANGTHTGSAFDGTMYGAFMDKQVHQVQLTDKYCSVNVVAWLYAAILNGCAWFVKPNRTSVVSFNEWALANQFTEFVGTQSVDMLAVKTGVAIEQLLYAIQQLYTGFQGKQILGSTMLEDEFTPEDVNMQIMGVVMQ

SARS-CoV-1 Mpro = SARS-CoV-1 Mpro (Severe acute respiratory syndrome coronavirus, UniProt P0C6X7); assay: biochemical
[1] = mean, 25 nM protein, 25 μM substrate, 30 min pre-incubation, 60 min at 30° C., read-out: Mpro_SARS-CoV-2 mean IC50

HCoV-NL63 Mpro, sequence (P0C6X5 2940-3242 limits assumed): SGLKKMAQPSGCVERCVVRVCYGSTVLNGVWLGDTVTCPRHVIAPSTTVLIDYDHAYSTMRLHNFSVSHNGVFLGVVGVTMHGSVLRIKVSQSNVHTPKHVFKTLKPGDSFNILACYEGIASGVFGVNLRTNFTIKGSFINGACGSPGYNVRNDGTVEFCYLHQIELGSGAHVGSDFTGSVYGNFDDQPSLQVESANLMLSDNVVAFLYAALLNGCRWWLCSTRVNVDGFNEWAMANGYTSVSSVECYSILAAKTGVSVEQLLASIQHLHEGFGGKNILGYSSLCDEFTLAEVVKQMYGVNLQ

Structure (SMILES) | IC50 (HCoV-NL63 Mpro) [nM] | IC50 (HCoV-HKU1 Mpro) [nM] | IC50 (HCoV-OC43 Mpro) [nM] | IC50 (HCoV-229E Mpro) [nM] | IC50 (SARS-CoV-2 Mpro) [nM] | IC50 (MERS Mpro) [nM] | IC50 (SARS-CoV-1 Mpro) [nM] | IC50 (SARS-CoV-2 Mpro; [1]) [nM]
CC1(C)[C@@H]2[C@@H](C(=O)N[C@H](C=O)C[C@@H]3CCNC3=O)N(C(=O)c3cc4cc(S(C)(=O)=O)ccc4[nH]3)C[C@@H]21 [Compound 80, (1R,2S,5S)-6,6-Dimethyl-3-(5-(methylsulfonyl)-1H-indole-2-carbonyl)-N—((S)-1-oxo-3-((S)-2-oxopyrrolidin-3-yl)propan-2-yl)-3-azabicyclo[3.1.0]hexane-2-carboxamide] | 48.2 | 22.5 | 63.3 | 28.6 | 35 | 384 | 75.5 | 
O=C[C@H](C[C@@H]1CCNC1=O)NC(=O)[C@@H]1C[C@@H](C2CCCCC2)CN1C(=O)c1cc2cccc(Cl)c2[nH]1 [Compound 81, (2S,4S)-1-(7-chloro-1H-indole-2-carbonyl)-4-cyclohexyl-N—((S)-1-oxo-3-((S)-2-oxopyrrolidin-3-yl)propan-2-yl)pyrrolidine-2-carboxamide] | 1050 | 37 | 173 | 78.2 | 35.3 | 2980 | 125 | 
N#Cc1ccc2cc(C(=O)N3CC4(CC4)C[C@H]3C(=O)N[C@H](C=O)C[C@@H]3CCNC3=O)[nH]c2c1 [Compound 82, (S)-5-(6-Cyano-1H-indole-2-carbonyl)-N—((S)-1-oxo-3-((S)-2-oxopyrrolidin-3-yl)propan-2-yl)-5-azaspiro[2.4]heptane-6-carboxamide] | 30.1 | 10.6 | 33.7 | 26.1 | 35.5 | 176 | 35.1 | 
CC1(C)[C@@H]2[C@@H](C(=O)N[C@H](C=O)C[C@@H]3CCNC3=O)N(C(=O)c3cc4ncccc4[nH]3)C[C@@H]21 [Compound 83, (1R,2S,5S)-6,6-dimethyl-N—((S)-1-oxo-3-((S)-2-oxopyrrolidin-3-yl)propan-2-yl)-3-(1H-pyrrolo[3,2-b]pyridine-2-carbonyl)-3-azabicyclo[3.1.0]hexane-2-carboxamide] | 58.9 | 39 | 81.3 | 46.3 | 35.5 | 436 | 116 | 
O=C[C@H](C[C@@H]1CCNC1=O)NC(=O)[C@@H]1CC2(CCC2)CN1C(=O)C1(c2ccccc2)CC1 [Compound 84, (S)—N—((S)-1-Oxo-3-((S)-2-oxopyrrolidin-3-yl)propan-2-yl)-6-(1-phenylcyclopropanecarbonyl)-6-azaspiro[3.4]octane-7-carboxamide] | 185 | 17.3 | 41.2 | 47.6 | 36 | 703 | 88.3 | 
Cc1cccc2[nH]c(C(=O)N3C[C@H]4[C@@H]([C@H]3C(=O)N[C@H](C=O)C[C@@H]3CCNC3=O)C4(C)C)cc12 [Compound 85, (1R,2S,5S)-6,6-Dimethyl-3-(4-methyl-1H-indole-2-carbonyl)-N—((S)-1-oxo-3-((S)-2-oxopyrrolidin-3-yl)propan-2-yl)-3-azabicyclo[3.1.0]hexane-2-carboxamide] | 53.2 | 23.2 | 47.9 | 34.6 |  | 259 | 48.2 | 36.7
CC1(C)[C@@H]2[C@@H](C(=O)N[C@H](C=O)C[C@@H]3CCNC3=O)N(C(=O)CC3CCOCC3)C[C@@H]21 [Compound 86, (1R,2S,5S)-6,6-Dimethyl-N—((S)-1-oxo-3-((S)-2-oxopyrrolidin-3-yl)propan-2-yl)-3-(2-(tetrahydro-2H-pyran-4-yl)acetyl)-3-azabicyclo[3.1.0]hexane-2-carboxamide] | 78.8 | 33.7 | 52.5 | 34.2 | 39.7 | 318 | 69.5 | 
CC(C)c1ccc(Cl)c2[nH]c(C(=O)N3C[C@H]4[C@@H]([C@H]3C(=O)N[C@H](C=O)C[C@@H]3CCNC3=O)C4(C)C)cc12 [Compound 88, (1R,2S,5S)-3-(7-Chloro-4-isopropyl-1H-indole-2-carbonyl)-6,6-dimethyl-N—((S)-1-oxo-3-((S)-2-oxopyrrolidin-3-yl)propan-2-yl)-3-azabicyclo[3.1.0]hexane-2-carboxamide] | 68.5 | 21.2 | 44.9 | 41.5 |  | 239 | 46.2 | 40.3
CC1(C)[C@@H]2[C@@H](C(=O)N[C@H](C=O)C[C@@H]3CCNC3=O)N(C(=O)c3cc4cc(Cl)ccc4[nH]3)C[C@@H]21 [Compound 89, (1R,2S,5S)-3-(5-Chloro-1H-indole-2-carbonyl)-6,6-dimethyl-N—((S)-1-oxo-3-((S)-2-oxopyrrolidin-3-yl)propan-2-yl)-3-azabicyclo[3.1.0]hexane-2-carboxamide] | 69.5 | 31 | 88.5 | 44.7 | 40.9 | 395 | 65.4 | 
Cn1c(C(=O)N2C[C@H]3[C@@H]([C@H]2C(=O)N[C@H](C=O)C[C@@H]2CCNC2=O)C3(C)C)cc2cc(Cl)ccc21 [Compound 90, (1R,2S,5S)-3-(5-Chloro-1-methyl-1H-indole-2-carbonyl)-6,6-dimethyl-N—((S)-1-oxo-3-((S)-2-oxopyrrolidin-3-yl)propan-2-yl)-3-azabicyclo[3.1.0]hexane-2-carboxamide] | 202 | 48 | 130 | 60.5 | 43.6 | 655 | 79.4 | 
COc1cccc2cc(C(=O)N3C[C@H]4[C@@H]([C@H]3C(=O)N[C@H](C=O)C[C@@H]3CCNC3=O)C4(C)C)[nH]c12 [Compound 91, (1R,2S,5S)-3-(7-Methoxy-1H-indole-2-carbonyl)-6,6-dimethyl-N—((S)-1-oxo-3-((S)-2-oxopyrrolidin-3-yl)propan-2-yl)-3-azabicyclo[3.1.0]hexane-2-carboxamide] | 215 | 61.1 | 110 | 92.9 |  | 396 | 83.3 | 43.9
C[C@H](C(=O)N1C[C@H]2[C@@H]([C@H]1C(=O)N[C@H](C=O)C[C@@H]1CCNC1=O)C2(C)C)C1CCCCC1 [Compound 92, (1R,2S,5S)-3-((S)-2-Cyclohexylpropanoyl)-6,6-dimethyl-N—((S)-1-oxo-3-((S)-2-oxopyrrolidin-3-yl)propan-2-yl)-3-azabicyclo[3.1.0]hexane-2-carboxamide] | 162 | 39.4 | 109 | 43.9 |  | 418 | 89.6 | 45
Cc1ccc2[nH]c(C(=O)N3C[C@H]4[C@@H]([C@H]3C(=O)N[C@H](C=O)C[C@@H]3CCNC3=O)C4(C)C)cc2c1 [Compound 93, (1R,2S,5S)-6,6-Dimethyl-3-(5-methyl-1H-indole-2-carbonyl)-N—((S)-1-oxo-3-((S)-2-oxopyrrolidin-3-yl)propan-2-yl)-3-azabicyclo[3.1.0]hexane-2-carboxamide] | 53.2 | 24 | 55.1 | 32.9 | 45.1 | 317 | 73.2 | 
CC1(C)[C@@H]2[C@@H](C(=O)N[C@H](C=O)C[C@@H]3CCNC3=O)N(C(=O)C3(O)CCCCC3)C[C@@H]21 [Compound 94, (1R,2S,5S)-3-(1-Hydroxycyclohexanecarbonyl)-6,6-dimethyl-N—((S)-1-oxo-3-((S)-2-oxopyrrolidin-3-yl)propan-2-yl)-3-azabicyclo[3.1.0]hexane-2-carboxamide] | 344 | 180 | 231 | 69.9 |  | 568 | 115 | 45.1
CC(C)(C)CC(=O)N1C[C@H]2[C@@H]([C@H]1C(=O)N[C@H](C=O)C[C@@H]1CCNC1=O)C2(C)C [Compound 95, (1R,2S,5S)-3-(3,3-Dimethylbutanoyl)-6,6-dimethyl-N—((S)-1-oxo-3-((S)-2-oxopyrrolidin-3-yl)propan-2-yl)-3-azabicyclo[3.1.0]hexane-2-carboxamide] | 189 | 64.4 | 124 | 67.5 |  | 413 | 100 | 45.5
CC1(C)[C@@H]2[C@@H](C(=O)N[C@H](C=O)C[C@@H]3CCNC3=O)N(C(=O)c3cc4c(Cl)cc(Cl)cc4[nH]3)C[C@@H]21 [Compound 97, (1R,2S,5S)-3-(4,6-Dichloro-1H-indole-2-carbonyl)-6,6-dimethyl-N—((S)-1-oxo-3-((S)-2-oxopyrrolidin-3-yl)propan-2-yl)-3-azabicyclo[3.1.0]hexane-2-carboxamide] | 88.9 | 27 | 72 | 46 | 49.9 | 395 | 75.4 | 
